# From BindingDB's records for doi:10.7270/Q2KP80J0 (The Scripps Research Institute Molecular Screening Center, 2007)
# Biological target: T1, Ephrin type-B receptor 4 (Homo sapiens, UniProt P54760)
# T1 sequence (P54760 whole entry): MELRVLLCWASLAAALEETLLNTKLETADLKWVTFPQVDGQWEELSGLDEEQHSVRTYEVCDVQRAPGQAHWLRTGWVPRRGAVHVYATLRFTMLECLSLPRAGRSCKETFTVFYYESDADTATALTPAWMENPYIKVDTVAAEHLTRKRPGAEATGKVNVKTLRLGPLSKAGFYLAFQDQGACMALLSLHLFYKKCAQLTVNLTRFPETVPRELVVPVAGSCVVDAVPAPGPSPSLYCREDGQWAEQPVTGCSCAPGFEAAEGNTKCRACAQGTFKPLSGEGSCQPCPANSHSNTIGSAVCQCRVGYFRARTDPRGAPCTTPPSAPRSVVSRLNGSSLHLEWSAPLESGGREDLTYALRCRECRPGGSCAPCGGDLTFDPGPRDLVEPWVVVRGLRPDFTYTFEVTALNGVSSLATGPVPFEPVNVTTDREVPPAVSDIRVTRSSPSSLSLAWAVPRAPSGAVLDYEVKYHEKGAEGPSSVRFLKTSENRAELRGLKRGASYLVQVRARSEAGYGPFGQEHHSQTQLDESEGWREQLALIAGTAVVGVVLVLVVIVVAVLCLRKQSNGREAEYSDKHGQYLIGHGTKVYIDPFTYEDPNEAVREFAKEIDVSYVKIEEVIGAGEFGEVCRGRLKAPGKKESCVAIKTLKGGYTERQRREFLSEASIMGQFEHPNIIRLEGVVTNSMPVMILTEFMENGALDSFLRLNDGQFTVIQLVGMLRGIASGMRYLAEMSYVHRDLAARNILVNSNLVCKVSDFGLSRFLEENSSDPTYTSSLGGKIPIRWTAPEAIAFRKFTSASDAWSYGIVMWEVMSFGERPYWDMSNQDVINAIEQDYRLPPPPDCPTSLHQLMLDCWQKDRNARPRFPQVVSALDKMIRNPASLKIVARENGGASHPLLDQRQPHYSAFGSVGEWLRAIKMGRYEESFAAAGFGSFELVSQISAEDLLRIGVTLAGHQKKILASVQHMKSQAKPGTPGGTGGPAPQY
# Test: blockers of EphB4 ligand binding – biochemical, TNYL-RAW peptide displacement, dose response (AID 835)
row,Structure (SMILES),IC50
1,COc1ccccc1C1CC(c2c(O)nc3ccc(Cl)cc3c2-c2ccccc2)=NN1S(C)(=O)=O (stereo not given) [(3Z)-6-chloranyl-3-[5-(2-methoxyphenyl)-1-methylsulfonyl-pyrazolidin-3-ylidene]-4-phenyl-quinolin-2-one],> 79.4 µM
2,O=C(O)/C(=C\c1ccco1)NC(=O)c1cccc2ccccc12 [(E)-3-(furan-2-yl)-2-(naphthalene-1-carbonylamino)prop-2-enoic acid],> 79.4 µM
3,O=C(/C=C/c1cccc([N+](=O)[O-])c1)NCCN1CCOCC1 [(E)-N-(2-morpholin-4-ylethyl)-3-(3-nitrophenyl)prop-2-enamide],> 79.4 µM
4,CCOC(=O)c1c(C)oc2c1c1c(c3ccccc32)OCN(Cc2cccnc2)C1 [MLS000043717],> 79.4 µM
5,CCOC(=O)C1=C(c2ccccc2)N2C=CS(=O)(=O)NC2S1 (stereo not given) [MLS000048572],> 79.4 µM
6,CN(c1ccccc1C(=O)Nc1ccccc1C(=O)NCc1ccco1)S(C)(=O)=O [MLS000049900],> 79.4 µM
7,O=C(NCCCN1CCCC1=O)NC12CC3CC(CC(C3)C1)C2 [MLS000050547],> 79.4 µM
8,CCn1c(CSc2nccn2C)nc2cc(C(=O)O)ccc21 [MLS000058666],> 79.4 µM
9,CCOc1cc(N2CCOCC2)c(OCC)cc1NC(=O)COc1cccc2cccnc12 [MLS000060380],> 79.4 µM
10,O=C(CSc1nnnn1Cc1ccccc1)Nc1ccc2c(c1)OCO2 [MLS000067975],> 79.4 µM
11,CCC(C)(C)NC(=O)C(c1ccco1)N(C(=O)c1csnn1)c1cccc(F)c1 (stereo not given) [MLS000074093],> 79.4 µM
12,O=C(CN(Cc1cccs1)C(=O)CSc1nnc(COc2ccccc2)o1)NC1CCCC1 [MLS000077370],> 79.4 µM
13,O=S1(=O)c2cccc3cccc(c23)N1Cc1nnc(-c2ccccc2Br)o1 [MLS000081705],> 79.4 µM
14,COc1cccc(OC)c1-c1nn2c(-c3cc(-c4ccccc4)n[nH]3)nnc2s1 [MLS000083027],> 79.4 µM
15,CC(=O)Nc1ccc(OCC=C(Cl)Cl)cc1 [MLS000107919],> 79.4 µM
16,COCc1nnc(NC(=O)CC(c2ccccc2)c2ccccc2)s1 [MLS000528014],> 79.4 µM
17,O=C(N/N=C/c1ccncc1)c1cc([N+](=O)[O-])cc([N+](=O)[O-])c1O [MLS000541056],> 79.4 µM
18,O=[N+]([O-])/C=C/c1cn(Cc2ccc(F)cc2)c2ccccc12 [MLS000577100],> 79.4 µM
19,CCOc1ccc(NC(=O)C(C)Oc2ccccc2C(=O)Nc2ccc(C)c(Cl)c2)cc1 (stereo not given) [MLS000581136],> 79.4 µM
20,O=C1c2ccccc2-c2onc3ccc(NCCCn4ccnc4)c1c23 [SMR000044769],0.8 µM
21,O=C1Nc2ccccc2/C1=N/Nc1nc2ccccc2s1 [SMR000123161],> 79.4 µM
22,Cc1[nH]c2ccccc2c1/C=C1\N=C(c2ccc(C(F)(F)F)cc2)OC1=O [SMR000152363],> 79.4 µM

# Further lines, results first:
row,IC50,Structure (SMILES)
1,> 79.4 µM,"CN1C(=O)S/C(=C/c2cccnc2)C1=O [(5E)-3-methyl-5-(3-pyridinylmethylidene)thiazolidine-2,4-dione]"
2,> 79.4 µM,O=C(/C=C/c1ccccc1Cl)NCc1ccccc1 [(E)-3-(2-chlorophenyl)-N-(phenylmethyl)-2-propenamide]
3,> 79.4 µM,CCCCNC(=O)C1C2C=CC3(CN(Cc4ccccc4Cl)C(=O)C13)O2 (stereo not given) [MLS000044497]
4,> 79.4 µM,CCCn1c(NC(=O)C2COc3ccccc3O2)nc2ccccc21 (stereo not given) [MLS000053418]
5,> 79.4 µM,O=C(NC(Cc1ccccc1)c1nc2ccccc2[nH]1)C1CC(=O)N(c2ccc3c(c2)OCCO3)C1 (stereo not given) [MLS000053466]
6,> 79.4 µM,CC1(C)Cc2ccccc2-c2nnc(SCC(=O)Nc3nc4ccccc4s3)n21 [MLS000077330]
7,> 79.4 µM,CC(=O)Nc1cccc(NC(=O)CSc2nnc(Cc3cccn3C)n2-c2ccc(C)cc2)c1 [MLS000092946]
8,> 79.4 µM,O=C(Nc1ccccc1C(=O)N1CCOCC1)c1ccncc1 [MLS000109827]
9,> 79.4 µM,O=C(Nc1ccc2c(c1)OCO2)C1CC(c2ccc(F)cc2)=NO1 (stereo not given) [MLS000520439]
10,> 79.4 µM,COc1ccc(Cn2nnnc2C(c2cc3ccc(OC)cc3nc2O)N2CCC(C)CC2)cc1 (stereo not given) [MLS000523343]
11,> 79.4 µM,COc1ccc(C(C)NC(=O)c2ccccc2)cc1 (stereo not given) [MLS000525960]
12,> 79.4 µM,CN(C(=O)N1CCN(c2ccccn2)CC1)c1ccccc1 [MLS000534907]
13,> 79.4 µM,CCOc1ccc(C(CCc2ccccc2)NC(=O)c2ccccc2F)cc1OCC (stereo not given) [MLS000544814]
14,5.3 µM,COCCCNc1c(O)nc2cccc3c2c1-c1ccccc1C3=O [SMR000017250]
15,> 79.4 µM,O=C(Nc1nc2n(n1)C(c1ccc(Cl)cc1)CC(c1ccc(Cl)cc1)N2)c1ccco1 (stereo not given) [SMR000045014]
16,11.1 µM,CCn1c(CSc2nnc(-c3cccnc3)n2-c2ccccc2C)nc2cc(C(=O)O)ccc21 [SMR000067019]
17,> 79.4 µM,Oc1ccccc1C=Nn1c(-c2cccs2)n[nH]c1=S [SMR000168763]
18,> 79.4 µM,"COC(=O)CSC1=NC2=C(C(=O)CCC2)C(c2ccc(C)cc2)C1C#N (stereo not given) [methyl 2-[[3-cyano-4-(4-methylphenyl)-5-oxo-4,6,7,8-tetrahydro-1H-quinolin-2-yl]sulfanyl]acetate]"
